In US20040250469A1, “Method for marking hydrocarbons with substituted anthraquinones” (priority 2003, published 2004):

Legend:
[1] = Absorption maximum and extinction measurement (absorbance, 1 cm path length, 10 mg/L solutions); assay type: physicochemical; details: for extinction value: 10 mg/L solution, 1 cm path length; for molar extinction coefficient (ε): at λmax, toluene
Procedure: All percentages are weight percentages, unless otherwise indicated. Concentrations in parts per million (“ppm”) are calculated on a weight/volume basis. When a solvent is not specified for measurement of an absorption maximum, a hydrocarbon solvent is preferred. Extinction values are determined by measuring absorption in absorbance units (“AU”) with a 1 cm path length on 10 mg/L solutions. The term “petroleum hydrocarbons” refers to products having a predominantly hydrocarbon composition, although they may contain minor amounts of oxygen, nitrogen, sulfur or phosphorus; petroleum hydrocarbons are derived from petroleum refining processes; they include, for example, lubricating oil, hydraulic fluid, brake fluid, gasoline, diesel fuel, kerosene, jet fuel and heating oil. An “alkyl” group is a hydrocarbyl group having from one to twenty carbon atoms in a linear, branched or cyclic arrangement. Alkyl groups optionally have one or more double or triple bonds. Substitution on alkyl groups of one or more halo, hydroxy or alkoxy groups is permitted; alkoxy groups may in turn be substituted by one or more halo substituents. Preferably, alkyl groups have no halo or alkoxy substituents, and most preferably, alkyl groups are saturated and unsubstituted. A “heteroalkyl” group is an alkyl group in which at least one carbon has been replaced by O, NR, or S, wherein R is hydrogen, alkyl, aryl or aralkyl. An “aryl” group is a substituent derived from an aromatic hydrocarbon compound. An aryl group has a total of from six to twenty ring atoms, and has one or more rings which are separate or fused. An “aralkyl” group is an “alkyl” group substituted by an “aryl” group. A “heterocyclic” group is a substituent derived from a heterocyclic compound having from five to twenty ring atoms, at least one of which is nitrogen, oxygen or sulfur. […] Substitution on aryl or heterocyclic groups of one or more of the following groups: halo, cyano, nitro, hydroxy, alkoxy, alkyl, heteroalkyl, alkanoyl, amino, or amino substituted by one or more of alkyl, aryl, aralkyl, heterocyclic, heteroalkyl or alkanoyl is permitted, with substitution by one or more halo groups being possible on alkyl, heteroalkyl, alkanoyl or alkoxy groups. […] In one preferred embodiment of the invention, aryl and heterocyclic groups are unsubstituted or substituted only by alkyl groups. An “aromatic heterocyclic” group is a heterocyclic group derived from an aromatic heterocyclic compound.
The absorption maxima, λmax, of several substituted anthraquinone dyes of formula (I), measured in xylene, are provided in the following table. For all of the dyes listed, R^4 and R^6 are hydrogen.

[2] = Solubility in xylene; assay type: physicochemical; details: weight percentage
Procedure: A mixture of leuco-1,4,5,8-tetrahydroxyanthraquinone (5.91 g), sodium dithionite (1.09 g) and 1-hexanol (175.2 g) was stirred while adding 2-ethylhexylamine (24.08 g). The mixture was heated to reflux (148-152° C.), maintained at reflux for 6-6.5 hours, and then cooled to ambient temperature. The precipitate was collected and washed thoroughly with methanol and water, and dried. The yield of dried isolated product was 7.0 g. Approximately another 1.9 g was present in the mother liquor, for a total yield of 8.9 g (90%). This material has a maximum absorption band (λmax) at a wavelength of 692 nm in xylene, or 688 nm in cyclohexane, with an extinction value of 0.640 AU in xylene and 0.660 AU in cyclohexane for a 10 mg/L solution. The solubility of the title compound in xylene is approximately 20%.

Structure (SMILES) | maximum absorption band (λmax) wavelength ([1]; in xylene) | extinction value ([1]; in xylene) | maximum absorption band (λmax) wavelength ([1]; in toluene) | further results
CCCCc1ccc(Nc2c(C#N)c(C#N)c(Nc3ccc(CCCC)cc3)c3c2C(=O)c2c(Nc4ccc(CCCC)cc4)c(C#N)c(C#N)c(Nc4ccc(CCCC)cc4)c2C3=O)cc1 [1,4,5,8-tetra(4′-n-butylphenylamino)-2,3,6,7-tetracyanoanthraquinone] | 900 nm | 0.19 AU | – | –
CCCCc1ccc(Nc2ccc(Nc3ccc(CCCC)cc3)c3c2C(=O)c2c(Nc4ccc(CCCC)cc4)c(C#N)c(C#N)c(Nc4ccc(CCCC)cc4)c2C3=O)cc1 [1,4,5,8-tetra-(4′-n-butylphenylamino)-2,3-dicyanoanthraquinone] | 835 nm | 0.342 AU | – | –
CCCCC(CC)CNc1ccc(NCC(CC)CCCC)c2c1C(=O)c1c(O)ccc(O)c1C2=O (centres unmarked) [Example 1, 1,4-di-(2-ethylhexylamino)-5,8-dihydroxyanthraquinone] | 692 nm | 0.640 AU | – | maximum absorption band (λmax) wavelength ([1]; in cyclohexane): 688 nm; extinction value ([1]; in cyclohexane): 0.660 AU; λmax, nm ([1]; measured in xylene, dyes of formula (I), R^4 and R^6 hydrogen): 692 nm; solubility in xylene [2]: approximately 20%
CCCCNc1c(C#N)c(C#N)c(NCCCC)c2c1C(=O)c1ccccc1C2=O [Example 2, 1,4-di-(n-butylamino)-2,3-dicyanoanthraquinone] | 700 nm | 0.23 AU | – | –
CCCCc1ccc(Nc2cccc3c2C(=O)c2c(Nc4ccc(CCCC)cc4)ccc(Nc4ccc(CCCC)cc4)c2C3=O)cc1 [Example 4, 1,4,5-tri(4-n-butylphenylamino)anthraquinone] | – | – | 675 nm | –
O=C1c2c(Nc3ccccc3)ccc(Nc3ccccc3)c2C(=O)c2c(Nc3ccccc3)ccc(Nc3ccccc3)c21 [Example 5, 1,4,5,8-tetra(phenylamino)anthraquinone] | – | – | 750 nm | molar extinction coefficient (ε) [1]: ~30,500
CCCCc1ccc(Nc2ccc(Nc3ccc(CCCC)cc3)c3c2C(=O)c2c(Nc4ccc(CCCC)cc4)ccc(Nc4ccc(CCCC)cc4)c2C3=O)cc1 [Example 6, 1,4,5,8-tetra(4-n-butylphenylamino)anthraquinone] | – | – | 762 nm | molar extinction coefficient (ε) [1]: ~36,900
